In patent US20190365705A1, “TOPICAL TOCOTRIENOL COMPOSITIONS AND METHODS OF INCREASING SKIN STEM CELLS” (OHIO STATE INNOVATION FOUNDATION, priority 2017, published 2019):
{6FAM} = 6-carboxyfluorescein label

Assays:
β-catenin = test: Topical IWR-1 pre-treatment of adult murine skin followed by TRF; assay type: in vivo, C57B1/6 mice
Method: Mice were randomly (www.random.org) divided into different groups as indicated in corresponding figure legends. The dorsal skin was shaved and hair was depilated using Nair® two days before experiments. TRF or its placebo (PBO) was applied topically at a dose of 5 mg/cm^2 skin, thrice per week. During the procedure, mice were anesthetized by low-dose isoflurane inhalation. Digital photographs were collected (Canon PowerShot S6 and Dermascope from Dino-lite ProII). In some experiments, to inhibit β-catenin expression, IWR-1 (Sigma; I0161) was used. A 10% DMSO stock IWR-1 solution was prepared and diluted with glycerol to a final concentration of 2 μg per 0.5 cm^2 of skin. This solution was applied topically on the dorsal skin of C57B1/6 mice at a dose of 12.5 μL/0.5 cm^2 for four consecutive days of IWR-1 or vehicle followed by 7 consecutive days of […] for one hour under occlusive dressing (Tegaderm™, 3M, St. Paul, Minn.).
Detection of anagen induction. Promotion of hair growth was evaluated by observing the skin color which is indicative of the telogen-to-anagen conversion.^50 Skin, collected and 8 μm formalin-fixed paraffin-embedded skin sections, were deparaffinized and stained with hematoxylin & eosin. Mosaic images at 20× were collected using Axioscanner (Zeiss Microscopy). From histological characterization of the sections, anagen follicles in dermis and subcutis layers were enumerated.
Histology, immunohistochemistry (IHC) and immunocytochemistry (ICC). Histology of skin was performed from 8 μm thick paraffin sections after staining with Hematoxylin and Eosin (H&E). Immunostaining of Ki67 (Abcam, ab15580; 1:400), LGR6 (Abcam, ab126747; 1:100), CD34 (Abcam, ab8158; 1:200), OCT4 (Abcam, ab19857; 1:200), SOX9 (Abcam, ab185230; 1:1000), KLF4 (Abcam; ab151733, 1:200), c-MYC (Abcam; ab32072, 1:200), NANOG (Abcam; ab80892, 1:200), K17 (Abcam, ab53707; 1:100), K15 (Abcam, ab52816; 1:100), Claudin (Invitrogen, RB9209P; 1:200), Occludin (Invitrogen, 711500; 1:200), ZO-1(Invitrogen, 617300; 1:200), ZO-2 (Invitrogen, 389100; 1:200), E-cadherin (Life Technologies, 131900; 1:200) and β-catenin (Abcam, ab22656; 1:200) were performed on paraffin and cryosections of skin sample using specific antibodies as indicated.^57 For immunocytochemistry, cells were fixed with cell fixation buffer (ebiosciences; 00-8222-49) and stained for respective antibodies. Specificity of the antibodies were validated using rabbit isotype control (Abcam, ab27478; 1:400), rat isotype control (Abcam, ab18412; 1:200), and mouse isotype control (Abcam, ab18443; 1:200) (FIG. 13). Briefly, OCT embedded tissue were cryosectioned (10 μm), fixed with cold acetone, blocked with 10% normal goat serum and incubated with specific antibodies overnight at 4° C. Signal was visualized by subsequent incubation with either biotinylated-tagged for DAB staining and fluorescence-tagged appropriate secondary antibodies (Alexa 488-tagged α-mouse, 1:200; Alexa 568-tagged α-mouse, 1:200; Alexa 488-tagged α-rabbit, 1:200; Alexa 568-tagged α-rabbit, 1:200; Alexa 568-tagged α-rat, 1:200).

β-catenin-Tcf3 complex = test: Tcf3 decoy transfection of keratinocytes with tocotrienol treatment (quantitative immunocytochemistry); assay type: cell-based, human; settings: 24 h
Method: (§1) Cell and cell culture. Immortalized human keratinocytes (HaCaT) were grown in Dulbecco's low-glucose modified Eagle's medium (Life Technologies) as described previously.^55 Cells were maintained in a standard culture incubator with humidified air containing 5% CO2 at 37° C.
Synthesis of Tcf3 decoy and control double-stranded oligodeoxynucleotides. Tcf3 decoy and control double-stranded oligodeoxynucleotides were prepared as described previously.^22 Briefly, FAM labelled phosphorothioate oligodeoxynucleotides were synthesized and purified by Sigma-Aldrich. The oligonucleotides sequence used were as follow: Tcf3 decoy sense, 5′-6FAM-CCGGGCTTTGATCTTTGC-3′ (SEQ ID NO:1); Tcf3 decoy anti-sense, 5′-6FAM-GCAAAGATCAAAGCCCGG-3′ (SEQ ID NO:2); Tcf3 scramble sense, 5′-6FAM-CCGGGTCAGTTCTTTTGC -3′ (SEQ ID NO:3); Tcf3 scramble anti-sense, 5′-6FAM-GCAAAAGAACTGACCCGG -3′ (SEQ ID NO:4). […]
(§2) Histology, immunohistochemistry (IHC) and immunocytochemistry (ICC). […] Signal was visualized by subsequent incubation with either biotinylated-tagged for DAB staining and fluorescence-tagged appropriate secondary antibodies (Alexa 488-tagged α-mouse, 1:200; Alexa 568-tagged α-mouse, 1:200; Alexa 488-tagged α-rabbit, 1:200; Alexa 568-tagged α-rabbit, 1:200; Alexa 568-tagged α-rat, 1:200).

β-catenin and Tcf3 = test: Proximity ligation assay (PLA) for β-catenin-Tcf3 in keratinocytes; assay type: cell-based, human; settings: 1 μM, 24 h
Method: as §1
In situ proximity ligation assay (PLA). PLA was performed as described previously using Sigma Duolink® in situ red starter kit for […] (DUO92105) following manufacturer's instructions except that the incubation time was prolonged to 90 minutes.^58 The assay was performed using rabbit Tcf3 (Abcam, ab69999; 1:50) and mouse β-catenin (Abcam, ab22656; 1:200) antibodies. Slides were imaged using Olympus FV 1000 spectral confocal microscope.

[1] = test system: human HaCaT keratinocytes; test: E-cadherin expression and β-catenin nuclear translocation in HaCaT keratinocytes (immunocytochemistry); assay type: cell-based; settings: 24 h
Method: as §1
as §2, with “(ICC). Histology of skin was performed from 8 μm thick paraffin sections after staining with Hematoxylin and Eosin (H&E).” for “(ICC).”

`O=C(Nc1cccc2cccnc12)c1ccc(N2C(=O)[C@@H]3[C@H](C2=O)[C@@H]2C=C[C@H]3C2)cc1` [IWR-1] was tested, and the “TRF-induced translocation of β-catenin to the nucleus” value (β-catenin) was “inhibited TRF-induced translocation of β-catenin to the nucleus”, the “lowering of E-cadherin in response to TRF” value (β-catenin) was “did not influence” and the “epidermal β-catenin” value (β-catenin; TRF-treated adult skin) was “effective in degrading epidermal β-catenin”. The “number of anagen hair follicles induced by topical TRF” value (β-catenin; day 11 (day 7 post TRF application), vs vehicle) was “significantly decreased” and the “TRF-stimulated keratinocyte proliferation (Ki67+ cells)” value (β-catenin; vs vehicle DMSO) was “eliminating the effect of TRF on stimulating keratinocytes proliferation”.
For “Tcf3 decoy: FAM labelled phosphorothioate double-stranded oligodeoxynucleotide based on Tcf3 binding consensus sequence (SEQ ID NO:1/2) (sense CCGGGCTTTGATCTTTGC; antisense GCAAAGATCAAAGCCCGG; DNA, all phosphorothioate, 5' {6FAM}, methylation of C not given here)”, the “effect on tocotrienol-induced stemness and pluripotency factors” value (β-catenin-Tcf3 complex; decoy 0.1 μM vs scramble 0.1 μM, tocotrienol 1 μM) was “markedly blunted”.
α-tocotrienol [pure tocotrienol] was tested, and the “interaction of β-catenin and Tcf3 (PLA)” value (β-catenin and Tcf3) was “interaction of β-catenin and Tcf3 in the nucleus”, the “membrane E-cadherin expression” value ([1]; 1 μM) was “sharp decrease” and the “nuclear translocation of β-catenin” value ([1]; pure tocotrienol 1 μM) was “nuclear translocation of β-catenin”. For the same compound, the “stemness and pluripotency factors (SOX9, OCT4, K17, K15, KLF4, c-MYC, NANOG) in keratinocytes” value (β-catenin-Tcf3 complex; pure tocotrienol 1 μM) was “induction of stemness as well as pluripotency factors”.
